In one data set the test system is P. aeruginosa PAO1. The data set can be described thus: Fluorescence microscopy, penetration of bolalipid. As to conditions: 180 μM. It counts as cell-based, Pseudomonas aeruginosa. The protocol: P. aeruginosa PAO1 was incubated with CM2 alone or in combination with tobramycin. A single colony of bacteria was collected from a Luria-Bertani (LB) agar plate and resuspended in 10 mL of LB broth overnight at 37°C, with shaking at 150 rpm. The following morning, a 2% (vol/vol) dilution was done in fresh LB broth, and the bacteria suspension was grown at 37°C with shaking at 150 rpm until it reached an OD600 of 0.3. The surface of microscopy SuperFrost glass slides (Thermo Fisher Scientific, Massachusetts, USA) was marked with a PAP pen, in order to design two square confined areas per glass slide, where the bacteria were deposited. One hundred microliters of bacterial suspension was transferred into sterile Eppendorf tubes and incubated with equal volumes of bolalipid suspension for 1 h. The bolalipid final concentration was 0.18 mM. The fluorescent Alexa Fluor 555 conjugate of wheat germ agglutinin (WGA) (Thermo Fisher Scientific) lectin membrane dye (10 μg/mL final concentration) was added to the suspension, and the bacteria were incubated for 45 min more. At the end of incubation, 100 μL was spotted in each half of the SuperFrost glass slides and incubated for 45 min more. Glass slides were then washed three times with phosphate-buffered saline (PBS) and left to dry for 5 min before addition of one drop of Fluoromount (Sigma-Aldrich, Germany) aqueous mounting medium. […]

A further data set has as its system G. vaginalis KC1. In words: Anaerobic broth microdilution MIC (BHI, 5% horse serum). It counts as cell-based, Gardnerella vaginalis. As to conditions: Gardnerella vaginalis, read-out: MIC. Background: In broth dilution the organism is exposed to a series of concentrations in liquid medium.
Another data set has as its system G. vaginalis KC3. The description is as above. It counts as cell-based, Gardnerella vaginalis. The note with it: Gardnerella vaginalis, read-out: MIC.
The subject of another data set is G. vaginalis KC2. The description is as above. It counts as cell-based, Gardnerella vaginalis. The note with it: Gardnerella vaginalis, read-out: MIC.
Data set [1] has as its system Pseudomonas aeruginosa RP73. The data set can be described thus: In vitro pharmacodynamic (PD) assay. As to conditions: P. aeruginosa RP73; combination 2:1 (wt/wt).
Experimental: In vitro PD assays were performed with Pseudomonas aeruginosa RP73 cultured in Roswell Park Memorial Institute 1640 medium (RPMI) supplemented with 5% Mueller-Hinton broth (MHB) ([35]). Bacteria were cultured overnight in 10 mL of RPMI–5% MHB at 37°C and diluted just prior to plate inoculation to an OD600 of 0.002. Stock solutions of colistin or tobramycin were prepared in sterile MilliQ water at a concentration of 200× MIC. Octa-bola was prepared in methanol at 2,000× MIC and diluted in water to 200× MIC. A dilution series was made in the top row of a polypropylene 96-well plate from 200× MIC to 0.2× MIC in a volume of 100 μL, to which 100 μL of the bacterial suspension was added to have a total of 1 × 10^6 log-phase CFU in 200 μL. The first time zero sample was taken <30 s after addition of bacteria to the plate, with further samples taken at appropriate intervals thereafter. […] Fifteen microliters was removed from each well, diluted 1:1,000 in phosphate-buffered saline, and plated onto RPMI–5% MH agar plates. The plates were incubated at 37°C overnight for CFU counting.
CFU data were log10 transformed, and the bacterial net growth rate was determined from the increase or decrease in CFU during the time of exposure to the antibiotics as the coefficient of a linear regression of log10 CFU as a function of time. The intercept of the regression was fixed by forcing the regression lines through the first CFU measurement (0 min) at a given antimicrobial concentration. The pharmacodynamic function according to Regoes et al. ([36]) describes the relationship between bacterial net growth rate (ψ) and the concentration of an antimicrobial (a): ψmax − ([ψmax − ψmin][a/zMIC])^κ/([a/zMIC]^κ − [ψmin/ψmax]). Fitting this function to the net bacterial growth rates in OriginPro 2020 (OriginLab Corporation, Northampton, MA) generates the parameters ψmin and ψmax (minimum and maximum growth rates, respectively), zMIC (the pharmacodynamic MIC), and κ (a measure of the cooperativity). […]
Data set [2] is described as follows: Maximum solubility in water. It counts as physicochemical. As to conditions: ultrapure water, 40 °C, thermodynamic from solid. On the procedure:
Stock solutions of bolalipids were prepared by dispersing the powder in ultrapure water, then stirring vigorously by vortexing, and sonicating in a 40°C bath sonicator for 20 min. The concentration of each stock solution corresponds to the highest solubility achieved in water for each bolalipid, using the method described above. DLS experiments were performed on a Malvern Zetasizer Nano (Malvern Instruments, Worcestershire, UK) in back-scattering mode at 20°C. There were three independent measurements of each sample and 12 runs for each measurement, with 10 s taken for each run. The attenuator index and measurement position were automatically adjusted. Fifty microliters of each sample was transferred into polystyrene semi-microcuvettes for determination of UV and visible wavelengths (Sarstedt).

For data set [3], the system named is Candida auris TGD1912. In words: MIC. It counts as cell-based.
Data set [4] has as its system Candida auris TGD1912. The data set can be described thus: Fluorescence microscopy, accumulation of bolalipid. It counts as cell-based. As to conditions: 0.18 mM (approximately 54× the MIC), 30 min. The protocol:
Candida auris cells were picked from a yeast extract-peptone-dextrose (YPD) agar plate and resuspended in 35 mL of sterile distilled water (dH2O). After resuspension, 150 μL of cells was inoculated in 100 mL of YPD broth overnight at 30°C with shaking at 130 rpm and grown to exponential phase (5 × 10^6 to 5 × 10^7 cells/mL). Cells (6 × 10^8) were washed in standard defined (SD) medium twice (pelleted at 1,500 × g for 5 min and resuspended in 10 mL SD medium [yeast nitrogen base without the amino acids D-glucose, methionine, adenine, histidine, tryptophan, uracil, leucine, and lysine]), followed by resuspension in 1 mL SD medium containing 0.18 mM Penta-bola, and incubated at 37°C for 30 min. After treatment with the Penta-bola, cells were pelleted and resuspended in Hanks’ balanced salt solution (HBSS) and 50 μg/mL CF594 concanavalin A (Biotium). After incubation at 37°C for 30 min, cells were washed once with HBSS and resuspended in 1 mL of HBSS. Polysine adhesion slides (Thermo Scientific) were prepared by spreading 20 μL of treated cells and allowing them to dry for 30 min before adding one drop of Fluoromount (Sigma-Aldrich, Germany) aqueous mounting medium. Fluorescence images were acquired using a Leica fluorescence microscope at ×100 magnification. […]

As for `Nc1c2c([n+](CCCCCCCCCCCC[n+]3c4c(c(N)c5ccccc53)CCCC4)c3ccccc13)CCCC2` [12-bis-THA Cl2, 12,12′-(Dodecane-1,12-diyl)-bis-(9-amino-1,2,3,4-tetrahydroacridinium) chloride], in the data set with P. aeruginosa PAO1, the “bacterial integrity / accumulation of bolalipid” value is “the bacteria appeared intact and the bolalipid was concentrated within the cells”.

For the compound `Cc1cc(N)c2ccccc2[n+]1CCCCCCCCCC[n+]1c(C)cc(N)c2ccccc21` [Dequalinium, dequalinium chloride, reference compound], the MIC (usually the least concentration at which growth counts as inhibited) with G. vaginalis KC1 was 2 µg/mL; in the data set with G. vaginalis KC3, 2 to 4 µg/mL; in the data set with G. vaginalis KC2 it was 4 µg/mL.

`Nc1c2c([n+](CCCCCCCCCCCC[n+]3c4c(c(N)c5ccccc53)CCCCCC4)c3ccccc13)CCCCCC2` [Octa-bola]: the “bactericidal activity (minimum growth rate, ψmin)” value in data set [1] was “strongly bactericidal, albeit only at the highest concentration tested”. Also, the solubility (usually the dissolved amount per volume that the medium holds) at 20 min in data set [2] is 360 µM.

In turn, `Nc1c2c([n+](CCCCCCCCCCCC[n+]3c4c(c(N)c5ccccc53)CCC4)c3ccccc13)CCC2` [Penta-bola] had an MIC with Candida auris TGD1912 [3] of 2 µg/mL. Besides, the “cell integrity / accumulation of bolalipid” value with Candida auris TGD1912 [4] is “the cells remained intact”.

The record behind these values is PMC9942557, “Bolaamphiphile Analogues of 12-bis-THA Cl2 Are Potent Antimicrobial Therapeutics with Distinct Mechanisms of Action against Bacterial, Mycobacterial, and Fungal Pathogens” (mSphere, 2022).
